Experimental findings from patent US9724351B2, “Compounds for the treatment of paramoxyvirus viral infections” (priority 2012, dated 2017) are described below.

Data set [1] can be described thus: Cytotoxicity Determination. To be noted: human, HEp-2 cells, without addition of virus, CCK-8 readout, bins (Table 4: greater than 100 μM; Table 5: equal to or less than 100 μM and greater than 10 μM), read-out: 50% cytotoxicity concentration (CC50). The format is cell-based. The method in brief: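 CC50 was derived from CCK-8 optical density after a 3-4 h reagent incubation. Before that, cells without virus had been treated for 5 days at 37 °C, 5% CO2 with compound at seven ½-step final concentrations from 100 μM, in duplicate wells.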

The subject of data set [2] is Respiratory Syncytial Virus (RSV) long strain (ATCC#VR-26). Kind of data set: RSV Antiviral Assay (CPE reduction assay). It counts as cell-based. To be noted: human respiratory syncytial virus, 120 h; HEp-2 cells infected with RSV long strain, 5 days, CCK-8 readout; bins (Table 2: less than 1 μM; Table 3: equal to or higher than 1 μM and less than 50 μM); read-out: 50% effective concentration (EC50). In short, it runs like this:
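Cytopathic-effect protection measured after 5 days at 37 °C, 5% CO2 via CCK-8 dehydrogenase readout at 450 nm (630 nm reference), EC50 regressed from mean O.D. Host HEp-2 cells received RSV long strain at 100 TCID50/well; compound 9-point ⅓ series starting 100 μM or 1 μM, 1% DMSO, duplicate wells.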

For the molecule `CNc1ccc2scc(/C=N/NC(=O)CNC(=O)c3ccc(OC)c(OC)c3)c2c1` [Compound 400-18], the CC50 at 5 days in data set [1] was greater than 100 µM. For the same molecule, the EC50 in data set [2] lay in the range of 1 to 50 µM.
`COc1cc(C(=O)NCC(=O)c2ccc(OC)c(-c3n[nH]c4ccccc34)n2)ccc1OCCO` [Compound 1346]: the CC50 at 5 days in data set [1] was greater than 100 µM. Moreover, in data set [2], the EC50 lay in the range of 1 to 50 µM.
For `C/C(=N\NC(=O)CNC(=O)c1ccc2c(c1)OCCO2)c1csc2ccccc12` [Compound 471] the same measures were greater than 100 µM and 1 to 50 µM.
In the same order, the values of `COc1cc(C(=O)NCC(=O)c2cc(OC)c(OC)c(-c3csc4c(F)cccc34)n2)ccc1OCCO` [Compound 2108] are greater than 100 µM and less than 1 µM.
For `COc1ccc(C(=O)NCC(=O)N/N=C(/c2csc3ccccc23)C2CC2)cc1OC` [Compound 426] the same measures were 10 to 100 µM and 1 to 50 µM.
In the case of `COc1cc(C(=O)NCC(=O)c2ccc(OC)c(-c3coc4c(F)cccc34)n2)ccc1OCCO` [Compound 1343], in data set [1], the CC50 at 5 days is greater than 100 µM. Moreover, the EC50 in data set [2] is less than 1 µM.
As for `C/C(=N\NC(=O)CNC(=O)c1ccc(N2CCCCC2)cc1)c1csc2ccccc12` [Compound 467], the CC50 at 5 days in data set [1] was greater than 100 µM. In addition, in data set [2], the EC50 was 1 to 50 µM.
For `COc1cc(C(=O)NCC(=O)c2ccc(OC)c(-c3ccc(F)c(Cl)c3)n2)ccc1-n1cccn1` [Compound 2649] the same measures were 10 to 100 µM and 1 to 50 µM.
In the same order, the values of `COc1cc(C(=O)NCC(=O)c2ccc(OC)c(-c3ccc(F)c(Cl)c3)n2)ccc1OCC(C)(C)O` [Compound 1319] are greater than 100 µM and less than 1 µM.
For `CCOc1ccc(C(=O)NCC(=O)N/N=C(\CC2CCCCC2)c2csc3ccccc23)cc1OC` [Compound 460] the same measures were greater than 100 µM and less than 1 µM.
Consider `COc1ccc(C(=O)NCC(=O)c2ccc(OC)c(-c3cccc4ccccc34)n2)cc1OC` [Compound 1513], for which the CC50 at 5 days in data set [1] lay within 10 to 100 µM. Besides, the EC50 in data set [2] was 1 to 50 µM.
In the case of `COc1ccc(C(=O)NCC(=O)c2ccc(OC)c(-c3c(C)ccnc3Cl)n2)cc1OC` [Compound 1511], the CC50 at 5 days in data set [1] was 10 to 100 µM. Moreover, in data set [2], the EC50 lay in the range of 1 to 50 µM.
On to `COc1cc(C(=O)NCC(=O)c2cc(CO)cc(-c3csc4c(F)cccc34)n2)ccc1OCCO` [Compound 1255], for which, in data set [1], the CC50 at 5 days was in the range of 10 to 100 µM. Also, the EC50 in data set [2] was less than 1 µM.
For `CCCCOc1ccc(C(=O)NCC(=O)N/N=C(\C)c2csc3ccccc23)cc1OC` [Compound 483] the same measures were 10 to 100 µM and 1 to 50 µM.
Regarding `COc1cc(C(=O)NCC(=O)N/N=C(/CC2CCCCC2)c2csc3c(F)cccc23)ccc1OCCO` [Compound 606], the CC50 at 5 days in data set [1] lay in the range of 10 to 100 µM. For the same molecule, the EC50 in data set [2] lay within 1 to 50 µM.
In the same order, the values of `COc1ccc(C(=O)NCC(=O)c2ccc(OC)c(-c3ccc(F)c(Cl)c3)n2)cc1F` [Compound 2642] are greater than 100 µM and 1 to 50 µM.
For `CCCC/C(=N/NC(=O)CNC(=O)c1ccc(OCC)c(OC)c1)c1csc2c(F)cccc12` [Compound 462B] the same measures were 10 to 100 µM and less than 1 µM.
For the molecule `COCC/C(=N\NC(=O)CNC(=O)c1ccc(OC)c(OC)c1)c1csc2c(F)cccc12` [Compound 400-15], the CC50 at 5 days in data set [1] was greater than 100 µM. Further, the EC50 in data set [2] is less than 1 µM.
For `COc1ccc(C(=O)NCC(=O)c2ccc(OC)c(-c3ccc4ncccc4c3)n2)cc1OC` [Compound 1507] the same measures were 10 to 100 µM and 1 to 50 µM.
In the same order, the values of `COc1cc(C(=O)NCC(=O)c2ccc(OC)c(-c3ccc(F)c(Br)c3)n2)ccc1OCc1cnc[nH]1` [Compound 1333] are 10 to 100 µM and less than 1 µM.
In the same order, the values of `COc1ccc(C(=O)NCC(=O)c2ccc(OC)c(-c3ccc4[nH]c(C)nc4c3)n2)cc1OC` [Compound 1521] are 10 to 100 µM and 1 to 50 µM.
Turning to `COc1cc(C(=O)NCC(=O)c2cn(C(C)C)cc(-c3csc4c(F)cccc34)c2=O)ccc1OCCO` [Compound 2200], in data set [1], the CC50 at 5 days is greater than 100 µM. Besides, the EC50 in data set [2] is less than 1 µM.
For `COc1ccc(C(=O)NCC(=O)c2cc(C3CC3)cc(-c3csc4c(F)cccc34)n2)cc1OC` [Compound 1249] the same measures were greater than 100 µM and 1 to 50 µM.
For `CCc1ccc(C(=O)CNC(=O)c2ccc(OC)c(OC)c2)nc1-c1csc2c(F)cccc12` [Compound 2105] the same measures were 10 to 100 µM and 1 to 50 µM.
In the same order, the values of `COc1ccc(C(=O)NCC(=O)N/N=C(\C)c2csc3cc(F)ccc23)cc1OC` [Compound 400-22] are 10 to 100 µM and 1 to 50 µM.
As for `COc1ccc(C(=O)NCC(=O)c2cc(Cl)cc(-c3csc4c(F)cccc34)n2)cc1OC` [Compound 2604], the CC50 at 5 days in data set [1] is greater than 100 µM. In data set [2], the EC50 lay in the range of 1 to 50 µM.
Turning to `CCOc1ccc(C(=O)NCC(=O)N/N=C(\C)c2csc3ccccc23)cc1N(CC)CC` [Compound 505], the CC50 at 5 days in data set [1] lay in the range of 10 to 100 µM. For the same molecule, in data set [2], the EC50 is 1 to 50 µM.
In the case of `CCCC/C(=N\NC(=O)CNC(=O)c1ccc(OC)c(OCC)c1)c1csc2ccccc12` [Compound 246A], in data set [1], the CC50 at 5 days is 10 to 100 µM. Also, the EC50 in data set [2] was less than 1 µM.
For `COc1cc(C(=O)NC(C)C(=O)c2ccc(OC)c(-c3ccc(F)c(Cl)c3)n2)ccc1OCCO` (stereo not shown) [Compound 1839] the same measures were 10 to 100 µM and less than 1 µM.
In the same order, the values of `CCOc1ccc(C(=O)NCC(=O)N/N=C(\C)c2csc3c(F)cccc23)cc1OC` [Compound 461] are 10 to 100 µM and less than 1 µM.
In the case of `COc1ccc(C(=O)NCC(=O)N/N=C2\CCCc3sc4ccccc4c32)cc1OC` [Compound 446], the CC50 at 5 days in data set [1] is greater than 100 µM. Moreover, the EC50 in data set [2] was less than 1 µM.
In the same order, the values of `COc1ccc(C(=O)NCC(=O)N/N=C(\C)c2csc3ccccc23)c(OC)c1OC` [Compound 481] are greater than 100 µM and 1 to 50 µM.
On to `COc1cc(C(=O)NCC(=O)c2ccc(OC)c(-c3csc4ccc(F)cc34)n2)ccc1OCCO` [Compound 1609], for which the CC50 at 5 days in data set [1] is greater than 100 µM. For the same molecule, the EC50 in data set [2] was less than 1 µM.
In the case of `COc1ccc(C(=O)NCC(=O)N/N=C2\CCOc3ccccc32)cc1OC` [Compound 452], the CC50 at 5 days in data set [1] was greater than 100 µM. Besides, the EC50 in data set [2] fell in the range of 1 to 50 µM.
With `COc1cc(C(=O)N[C@H](CCO)C(=O)c2ccc(OC)c(-c3ccc(F)c(C(F)(F)F)c3)n2)ccc1OCCO` [Compound 1806], in data set [1], the CC50 at 5 days is greater than 100 µM. The EC50 in data set [2] is less than 1 µM.
For `COc1cc(C(=O)NCC(=O)c2ccc(OC)c(-c3ccc(F)c(C(F)F)c3)n2)ccc1OCCO` [Compound 1327] the same measures were greater than 100 µM and less than 1 µM.
For `CCOc1ccc(C(=O)NCC(=O)c2ccc(OC)c(-c3ccc(F)c(Cl)c3)n2)cc1OC` [Compound 2641] the same measures were greater than 100 µM and less than 1 µM.
Take `COc1cc(C(=O)NCC(=O)c2cccc(-c3csc4c(F)cccc34)n2)ccc1OCCCCO` [Compound 1223]: the CC50 at 5 days in data set [1] is 10 to 100 µM. Also, the EC50 in data set [2] lay in the range of 1 to 50 µM.
In the same order, the values of `COc1cc(C(=O)NCC(=O)c2ccc3c(n2)-c2c(sc4c(F)cccc24)CO3)ccc1OCCO` [Compound 2703] are 10 to 100 µM and 1 to 50 µM.
Take `COCCOc1ccc(C(=O)NCC(=O)c2ccc(OC)c(-c3ccc(F)c(Cl)c3)n2)cc1` [Compound 1311]: the CC50 at 5 days in data set [1] is greater than 100 µM. The EC50 in data set [2] fell in the range of 1 to 50 µM.
For `CCOc1ccc(C(=O)NCC(=O)Nc2nc3cc(Cl)ccc3n2CCOC)cc1OC` [Compound 911] the same measures were 10 to 100 µM and 1 to 50 µM.
In the same order, the values of `COc1ccc(C(=O)NCC(=O)N/N=C(\CCO)c2csc3c(F)cccc23)cc1OC` [Compound 400-13] are greater than 100 µM and 1 to 50 µM.
For `COc1cc(C(=O)N[C@H](CO)C(=O)c2ccc(OC)c(-c3ccc(F)c(Cl)c3)n2)ccc1OCCO` [Compound 1831] the same measures were 10 to 100 µM and less than 1 µM.
For `CNC(=O)c1ccc(-c2nc(C(=O)CNC(=O)c3ccc(OC)c(OC)c3)ccc2OC)cc1` [Compound 1504], in data set [1], the CC50 at 5 days was greater than 100 µM. In addition, the EC50 in data set [2] is 1 to 50 µM.
For `CCOc1ccc(C(=O)NCC(=O)N/N=C/c2c[nH]c3c(F)cccc23)cc1OC` [Compound 400-27] the same measures were greater than 100 µM and 1 to 50 µM.
For `COc1cc(C(=O)NCC(=O)c2ccc(OC)c(-c3ccccc3)n2)ccc1OCCO` [Compound 1613] the same measures were greater than 100 µM and less than 1 µM.
As to `COc1ccc(C(=O)NCC(=O)c2ccc(OC)c(-c3c[nH]nc3C)n2)cc1OC` [Compound 1541], the CC50 at 5 days in data set [1] was greater than 100 µM. The EC50 in data set [2] is 1 to 50 µM.
On to `COc1cc(C(=O)NCC(=O)N/N=C(\C)c2csc3ccccc23)ccc1OCCO` [Compound 600], for which, in data set [1], the CC50 at 5 days is greater than 100 µM. Also, the EC50 in data set [2] is less than 1 µM.
For `C/C(=N\NC(=O)CNC(=O)c1ccc2c(c1)OCCN2C)c1csc2ccccc12` [Compound 470] the same measures were greater than 100 µM and 1 to 50 µM.
Take `COc1ccc(C(=O)NCC(=O)c2cc(CC(C)C)cc(-c3csc4c(F)cccc34)n2)cc1OC` [Compound 1239]: the CC50 at 5 days in data set [1] is greater than 100 µM. Moreover, the EC50 in data set [2] lay in the range of 1 to 50 µM.
